For test [1], the system named is human SKM-1 acute myeloid leukemia cells. The test is described as follows: SKM-1 antiproliferation cell-based assay (ATPlite). Conditions: Homo sapiens, SKM-1, 96 h, SKM-1 antiproliferation assay, 4 days, Table C2. Summed up: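 Log-phase cells in RPMI 1640/15% FBS were seeded at 34722 cells/mL and exposed for 4 days to nine-concentration DMSO serial dilutions in triplicate. Viability was read as ATP luminescence (ATPlite 1step), and IC50 values came from variable-slope non-linear regression.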

In test [2] the target is T1, human BRD4 bromodomain II (Homo sapiens, UniProt O60885).
T1 construct: human BRD4 bromodomain II [based on Genbank NM_058243, residues 349-460]; host or cells: E. coli
Briefly: Bromodomain binding assay (AlphaScreen), BRD4 BDII. The conditions noted are these: AlphaScreen assay, Table C2; read-out: BRD4 BDII IC50. Summed up:
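Compounds (10-point, 3-fold series) were preincubated 30 min at room temperature with E. coli-expressed N-terminal His6-tagged BRD4 BDII (residues 349-460) or BDI (residues 44-170) in 50 mM HEPES pH 7.5, 100 mM NaCl, 0.05% CHAPS, 0.1% BSA, 1% DMSO. Displacement of biotinylated tetra-acetylated H4 1-21 peptide was read by AlphaScreen; IC50 from curve fitting.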
For orientation: Bead proximity is the source of the signal in Alpha formats.

One may read the GI50 as the concentration giving 50% growth inhibition. Low readings indicate more potent growth inhibition, high ones less potent growth inhibition. One may read the IC50 as the concentration needed to halve the response being measured. The compound `O=C1CCCCN1c1ccc(-c2cc(F)cc(-c3ccnc(N4CCNCC4)c3)c2O)cc1F` [Example 280, 1-(3,5′-difluoro-2′-hydroxy-3′-(2-(piperazin-1-yl)pyridin-4-yl)-[1,1′-biphenyl]-4-yl)piperidin-2-one] gave a GI50 in test [1] of 300 to 3000 nM. Moreover, the IC50 in test [2] was 10 to 100 nM.
As to `O=C1CCCCN1c1ccc(-c2cc(F)cc(-c3ccnc(N4CCNCC4)c3)c2O)cc1Cl` [Example 281, 1-(3-chloro-5′-fluoro-2′-hydroxy-3′-(2-(piperazin-1-yl)pyridin-4-yl)-[1,1′-biphenyl]-4-yl)piperidin-2-one], in test [1], the GI50 lay in the range of 300 to 3000 nM. For the same compound, the IC50 in test [2] lay within 10 to 100 nM.
`O=C1CCCCN1c1ccc(-c2cccc(-c3ccnc(N4CCNCC4)c3)c2O)cc1Cl` [Example 282, 1-(3-chloro-2′-hydroxy-3′-(2-(piperazin-1-yl)pyridin-4-yl)-[1,1′-biphenyl]-4-yl)piperidin-2-one]: in test [1], the GI50 lay within 300 to 3000 nM. Further, the IC50 in test [2] is 10 to 100 nM.
For `CC(=O)Nc1ccc(-c2cccc(-c3ccnc(N4CC5(CNC5)C4)c3)c2O)cc1Cl` [Example 283, N-(3′-(2-(2,6-diazaspiro[3.3]heptan-2-yl)pyridin-4-yl)-3-chloro-2′-hydroxy-[1,1′-biphenyl]-4-yl)acetamide], the GI50 in test [1] lay in the range of 300 to 3000 nM. Besides, the 50% inhibitory concentration (IC50) in test [2] fell in the range of 10 to 100 nM.
Consider `O=C1CCCN1c1ccc(-c2cccc(-c3ccnc(N4CC5(CNC5)C4)c3)c2O)cc1F` [Example 284, 1-(3′-(2-(2,6-diazaspiro[3.3]heptan-2-yl)pyridin-4-yl)-3-fluoro-2′-hydroxy-[1,1′-biphenyl]-4-yl)pyrrolidin-2-one], for which the GI50 in test [1] lay within 300 to 3000 nM. In test [2], the IC50 was in the range of 10 to 100 nM.
Taken in the same sequence, the figures for `O=C1CCCN1c1ccc(-c2cc(F)cc(-c3ccnc(N4CC5(CNC5)C4)c3)c2O)cc1F` [Example 285, 1-(3′-(2-(2,6-diazaspiro[3.3]heptan-2-yl)pyridin-4-yl)-3,5′-difluoro-2′-hydroxy-[1,1′-biphenyl]-4-yl)pyrrolidin-2-one] were 300 to 3000 nM and 10 to 100 nM.
In test [1], `CC(=O)Nc1ccc(-c2cccc(-c3cc(N4CCNCC4)nc4[nH]ccc34)c2O)cc1F` [Example 286, N-(3-fluoro-2′-hydroxy-3′-(6-(piperazin-1-yl)-1H-pyrrolo[2,3-b]pyridin-4-yl)-[1,1′-biphenyl]-4-yl)acetamide] came in with a GI50 of 300 to 3000 nM. Further, the 50% inhibitory concentration (IC50) in test [2] was 10 to 100 nM.
Take `O=C1NCCCN1c1ccc(-c2cc(F)cc(-c3ccnc(N4CCNCC4)c3)c2O)cc1Cl` [Example 287, 1-(3-chloro-5′-fluoro-2′-hydroxy-3′-(2-(piperazin-1-yl)pyridin-4-yl)-[1,1′-biphenyl]-4-yl)tetrahydropyrimidin-2(1H)-one]: the GI50 in test [1] lay in the range of 300 to 3000 nM. The IC50 in test [2] is greater than 100 nM.
Taken in the same sequence, the figures for `CN1CCCN(c2ccc(-c3cccc(-c4ccnc(N5CCNCC5)c4)c3O)cc2F)C1=O` [Example 288, 1-(3-fluoro-2′-hydroxy-3′-(2-(piperazin-1-yl)pyridin-4-yl)-[1,1′-biphenyl]-4-yl)-3-methyltetrahydropyrimidin-2(1H)-one] were no less than 3000 nM and greater than 100 nM.
Regarding `C[C@@H]1CN(c2cc(-c3cccc(-c4ccc(N5CCN(C)C5=O)c(F)c4)c3O)ccn2)CCN1` [Example 289, (R)-1-(3-fluoro-2′-hydroxy-3′-(2-(3-methylpiperazin-1-yl)pyridin-4-yl)-[1,1′-biphenyl]-4-yl)-3-methylimidazolidin-2-one], in test [1], the GI50 fell in the range of 30 to 300 nM. In addition, the IC50 in test [2] was 1 to 10 nM.
Taken in the same sequence, the figures for `COC(=O)c1cc(-c2ccnc(N3CCNCC3)c2)c(O)c(-c2ccc(NC(C)=O)c(F)c2)c1` [Example 290, Methyl 4′-acetamido-3′-fluoro-6-hydroxy-5-(2-(piperazin-1-yl)pyridin-4-yl)-[1,1′-biphenyl]-3-carboxylate] were no less than 3000 nM and greater than 100 nM.
In test [1], `CC(=O)Nc1ccc(-c2cccc(-c3cc(F)nc(N4CCNCC4)c3)c2O)cc1F` [Example 291, N-(3-fluoro-3′-(2-fluoro-6-(piperazin-1-yl)pyridin-4-yl)-2′-hydroxy-[1,1′-biphenyl]-4-yl)acetamide] showed a GI50 of 300 to 3000 nM. The IC50 in test [2] is 10 to 100 nM.
`CN1CCN(c2ccc(-c3cccc(-c4cncc(N5CCNCC5)c4)c3O)cc2F)C1=O` [Example 292, 1-(3-fluoro-2′-hydroxy-3′-(5-(piperazin-1-yl)pyridin-3-yl)-[1,1′-biphenyl]-4-yl)-3-methylimidazolidin-2-one]: the GI50 in test [1] is 30 to 300 nM. Moreover, the IC50 in test [2] is 1 to 10 nM.
For `CN1CCN(c2ccc(-c3cccc(-c4cncc(N5CCNCC5)c4)c3O)cc2Cl)C1=O` [Example 293, 1-(3-chloro-2′-hydroxy-3′-(5-(piperazin-l-yl)pyridin-3-yl)-[1,1′-biphenyl]-4-yl)-3-methylimidazolidin-2-one] the same measures were 30 to 300 nM and 1 to 10 nM.
For `C[C@@H]1CN(c2cc(-c3cccc(-c4ccc(N5CCN(C)C5=O)c(Cl)c4)c3O)ccn2)CCN1` [Example 294, (R)-1-(3-chloro-2′-hydroxy-3′-(2-(3-methylpiperazin-1-yl)pyridin-4-yl)-[1,1′-biphenyl]-4-yl)-3-methylimidazolidin-2-one] the same measures were 30 to 300 nM and 1 to 10 nM.
In the case of `CN1CCN(c2ccc(-c3cc(Cl)cc(-c4ccnc(N5CCNCC5)c4)c3O)cc2Cl)C1=O` [Example 295, 1-(3,5′-dichloro-2′-hydroxy-3′-(2-(piperazin-1-yl)pyridin-4-yl)-[1,1′-biphenyl]-4-yl)-3-methylimidazolidin-2-one], in test [1], the GI50 is 30 to 300 nM. For the same compound, in test [2], the IC50 was 1 to 10 nM.
`CC(=O)Nc1ccc(-c2cccc(-c3ccnc(C#CCN)c3)c2O)cc1F` [Example 296, N-(3′-(2-(3-aminoprop-1-yn-1-yl)pyridin-4-yl)-3-fluoro-2′-hydroxy-[1,1′-biphenyl]-4-yl)acetamide]: in test [1], the concentration for 50% growth inhibition (GI50) lay in the range of 300 to 3000 nM. Also, the IC50 in test [2] fell in the range of 10 to 100 nM.
For `CC(=O)Nc1ccc(-c2cc(F)cc(-c3ccnc(N4CC5(CNC5)C4)c3)c2O)cc1Cl` [Example 298, N-(3′-(2-(2,6-diazaspiro[3.3]heptan-2-yl)pyridin-4-yl)-3-chloro-5′-fluoro-2′-hydroxy-[1,1′-biphenyl]-4-yl)acetamide] the same measures were 30 to 300 nM and 10 to 100 nM.
With `CNC(=O)c1cc(-c2ccnc(N3CCNCC3)c2)c(O)c(-c2ccc(NC(C)=O)c(F)c2)c1` [Example 299, 4′-Acetamido-3′-fluoro-6-hydroxy-N-methyl-5-(2-(piperazin-1-yl)pyridin-4-yl)-[1,1′-biphenyl]-3-carboxamide], the 50% growth inhibitory concentration (GI50) in test [1] was no less than 3000 nM. The half-maximal inhibitory concentration (IC50) in test [2] was in the range of 10 to 100 nM.
For `CN1CCN(c2ccc(-c3cccc(-c4ccnc(N5CCC(N)CC5)c4)c3O)cc2Cl)C1=O` [Example 300, 1-(3′-(2-(4-aminopiperidin-1-yl)pyridin-4-yl)-3-chloro-2′-hydroxy-[1,1′-biphenyl]-4-yl)-3-methylimidazolidin-2-one] the same measures were 30 to 300 nM and 1 to 10 nM.
As to `CN1CCN(c2ccc(-c3cccc(-c4ccnc(N5CCCC(N)C5)c4)c3O)cc2Cl)C1=O` (stereo not drawn) [Example 301, 1-(3′-(2-(3-aminopiperidin-1-yl)pyridin-4-yl)-3-chloro-2′-hydroxy-[1,1′-biphenyl]-4-yl)-3-methylimidazolidin-2-one], in test [1], the GI50 is 30 to 300 nM. In test [2], the half-maximal inhibitory concentration (IC50) lay in the range of 1 to 10 nM.

(Values after patent US20250179059A1 (The Regents of the University of California, priority 2021, published 2025).)
